Common to all, as to assay: In vitro cytotoxicity assay (resazurin reduction test)
Holding throughout (assay type): cell-based
A general note: Resazurin is reduced to fluorescent resorufin, in cell work by metabolically active cells.

The test system of one assay is Normal human fibroblasts. The settings on record: Fibroblast, 48-h continuous drug exposure. The source says:
(§1) Normal human fibroblasts were purchased from Promocell (Heidelberg, Germany). This frozen culture was obtained from foreskin waste and the cells used in this work were from the seventh to twelfth passage of the culture. M4Beu, a human melanoma cell line, was established in the laboratory of Dr. J. F. Doré (INSERM, Unit 218, Lyon, France) from metastatic biopsy specimens and maintained in cell culture for almost 20 years in our lab. Breast cancer adenocarcinoma MCF 7, prostatic adenocarcinoma PC 3, colon adenocarcinoma DLD-1, lung non-small cell carcinoma A 549, ovary adenocarcinoma PA1 human cell lines and L 929 murine cell line were purchased from the European Collection of Cell Cultures (ECACC; Salisbury, United Kingdom). Murine Melanoma B16 was purchased from American Type of Culture Collection (ATCC, Manassas, USA) and murine colon carcinoma cell line CT-26 was obtained from Dr I. J. Fidler (University of Texas M.D. Anderson Cancer Center, Houston).
(§2) Stock cell cultures were maintained as monolayers in 75cm^2 culture flasks in Glutamax Eagle's minimum essential medium with Earle's salts (MEM; Gibco BRL, Paisley, UK) supplemented with 10% fetal calf serum (Sigma, St Quentin Fallavier, France), 1 mM sodium pyruvate (Gibco), 1X vitamins solution (Gibco), 1X non essential amino acids solution (Gibco) and 4 µg/ml of gentamicine (Gibco). Cells were grown at 37°C in a humidified atmosphere containing 5% CO2.
(§3) Cells were plated at a density of 5 x 10^3 cells per well in 96-well microplates (Nunclon™, Nunc, Roskilde, Denmark) in 150 µl of culture medium and were allowed to adhere for 16 h before treatment with the compound tested.
(§4) Stock solution of each compound was prepared in dimethylsulfoxide (DMSO) and kept at -20°C. until use. The percentage of DMSO was kept at 0.5% (v/v) whichever the concentration tested. […] Fifty microliters of a 4X solution in MEM was then added and a 48-h continuous drug exposure protocol was used. Then, the cytotoxic effect of compounds on tumour cells was tested by using Resazurin reduction test.
(§5) Resazurin was identified as the Alamar blue dye (O'Brien, J. et al.; European Journal of Biochemistry, 267, 5421-6, (2000)). The resazurin reduction test (RRT) was carried out according to the protocol described here. Briefly, plates were rinsed by 200 µl PBS (37° C, Gibco) using a multichannel dispenser (Labsystems, Helsinki, Finland) and emptied by overturning on absorbent toweling. Then, 150 µl of a 25 µg/ml solution of resazurin in MEM without SVF nor Phenol red was added in each well. The plates were incubated 1 h at 37° C. in an humidified atmosphere with 5% of CO2 for fluorescence development by living cells. Fluorescence was then measured on the automated 96-well plate reader Fluoroskan Ascent FL™ (Labsystems) using an excitation wavelength of 530 nm and an emission one of 590 nm.
(§6) Cytotoxic activity has been tested against the six human tumour cell lines breast adenocarcinoma MCF-7, colon adenocarcinoma DLD-1, ovary adenocarcinoma PA1, prostatic adenocarcinoma PC3, lung carcinoma A549, melanoma M4Beu and a primary culture of human fibroblasts.

In assay [1] the test system is lung non-small cell carcinoma A 549. The following applies: Homo sapiens; A549; 48-h continuous drug exposure.
Source text: as §1, §2, §3, §4, §5, §6

The test system of assay [2] is colon adenocarcinoma DLD-1. The settings on record: Homo sapiens, DLD1, 48-h continuous drug exposure.
Source text: as §1, §2, §3, §4, §5, §6

The subject of another assay is ovary adenocarcinoma PA1. The following applies: Homo sapiens, 48-h continuous drug exposure.
Source text: as §1, §2, §3, §4, §5, §6

In assay [3] the test system is Breast cancer adenocarcinoma MCF 7. The following applies: Homo sapiens; MCF7; 48-h continuous drug exposure.
Source text: as §1, §2, §3, §4, §5, §6

The subject of assay [4] is M4Beu, a human melanoma cell line. The settings on record: 48-h continuous drug exposure.
Source text: as §1, §2, §3, §4, §5, §6

The subject of assay [5] is prostatic adenocarcinoma PC 3. The following applies: Homo sapiens; PC3; 48-h continuous drug exposure.
Source text: as §1, §2, §3, §4, §5, §6

In another assay the test system is Murine Melanoma B16. The following applies: Mus musculus, 48-h continuous drug exposure.
Source text: as §1, §2, §3, §4, §5

The test system of assay [6] is murine colon carcinoma cell line CT-26. The following applies: Mus musculus; CT26; 48-h continuous drug exposure.
Source text: as §1, §2, §3, §4, §5

The term IC50 denotes the concentration that inhibits the measured activity by half. Read a low IC50 as greater potency in that assay. For `CC(=O)OC[C@H]1O[C@@H](NC(=O)NCCCc2ccc(N(CCCl)CCCl)cc2)[C@H](F)[C@@H](OC(C)=O)[C@@H]1OC(C)=O` [Compound 17a, N-(3,4,6-tri-O-acetyl-2-deoxy-2-fluoro-β-D-glucopyranosyl)-N'-{3-(4-[bis(2-chloroethyl)amino]phenyl)propyl}urea], the IC50 with Normal human fibroblasts is 13 ± 2 µM; in assay [1], 8 ± 2 µM; in assay [2], 7 ± 3 µM; in the assay with ovary adenocarcinoma PA1 it was 0.6 ± 0.2 µM; in assay [3], 26.4 ± 0.6 µM; in [4] it was 27 ± 11 µM. The compound further came in with an IC50 in assay [5] of 4 ± 1 µM.
For the compound `CC(=O)OC[C@H]1O[C@@H](NC(=O)c2ccc(NC(=O)CCCc3ccc(N(CCCl)CCCl)cc3)cc2)[C@H](F)[C@@H](OC(C)=O)[C@@H]1OC(C)=O` [Compound 20a, N-(3,4,6-tri-O-acetyl-2-deoxy-2-fluoro-β-D-glucopyranosyl)-4-(4-{4-[bis(2-chloroethyl)amino]phenyl}butanamido)benzamide], the IC50 with Murine Melanoma B16 came out at 4.6 ± 0.3 µM; in [6], 1.7 ± 0.3 µM; with Normal human fibroblasts, 4 ± 2 µM; in assay [1] it was 2.7 ± 0.6 µM; in assay [2], 3 ± 2 µM; with ovary adenocarcinoma PA1, 0.3 ± 0.1 µM. For the same compound, the IC50 was determined as 5 ± 2 µM in assay [3], 7 ± 3 µM in [4] and 1.4 ± 0.3 µM in assay [5].
With `CC(=O)OC[C@H]1O[C@@H](NC(=O)CCCNC(=O)CCCc2ccc(N(CCCl)CCCl)cc2)[C@H](F)[C@@H](OC(C)=O)[C@@H]1OC(C)=O` [Compound 22a, N-[4-(3,4,6-tri-O-acetyl-2-deoxy-2-fluoro-β-D-glucopyranosylamino)-4-oxobutyl]-4-{4-[bis(2-chloroethyl)amino]phenyl}butanamide], the IC50 with Normal human fibroblasts was 4.1 ± 0.1 µM; in [1] it was 13 ± 5 µM; in assay [2], 9 ± 2 µM; in the assay with ovary adenocarcinoma PA1, 0.27 ± 0.04 µM; in [3], 12 ± 1 µM; in assay [4] it was 9 ± 3 µM. In assay [5], this compound showed an IC50 of 3 ± 1 µM.
Consider `CC(=O)OC[C@H]1O[C@@H](NC(=O)CCNC(=O)CCCc2ccc(N(CCCl)CCCl)cc2)[C@H](F)[C@@H](OC(C)=O)[C@@H]1OC(C)=O` [Compound 31a, N-[3-(3,4,6-tri-O-acetyl-2-deoxy-2-fluoro-β-D-glucopyranosylamino)-3-oxopropyl]-4-{4-[bis(2-chloroethyl)amino]phenyl}butanamide], for which the IC50 in the assay with Normal human fibroblasts was 7 ± 5 µM; in assay [1] it was 9.2 ± 0.5 µM; in assay [2], 11 ± 4 µM; with ovary adenocarcinoma PA1, 0.24 ± 0.08 µM; in assay [3] it was 13 ± 5 µM; in [4], 15 ± 3 µM. Besides, in [5], the IC50 is 3.7 ± 0.3 µM.
As for `CC(=O)OC[C@H]1O[C@@H](Oc2ccc(NC(=O)CCCc3ccc(N(CCCl)CCCl)cc3)cc2)[C@H](F)[C@@H](OC(C)=O)[C@@H]1OC(C)=O` [Compound 37a, N-[4-(3,4,6-tri-O-acetyl-2-deoxy-2-fluoro-β-D-glucopyranosyloxy)phenyl]-4-{4-[bis(2-chloroethyl)amino]phenyl}butanamide], the IC50 with Normal human fibroblasts was over 50 µM; in assay [1] it was 1.9 ± 0.01 µM; in [2], 10 ± 5 µM; with ovary adenocarcinoma PA1, 0.76 ± 0.06 µM; in assay [3] it was 26 ± 11 µM; in [4], over 50 µM. In [5], this compound returned an IC50 of 11 ± 4 µM.

(Values after patent EP1881000A1, “Conjugates of 2-fluoro-2-deoxy-glucose and their uses as anti cancer agents” (INSTITUT NATIONAL DE LA SANTE ET DE LA RECHERCHE MEDICALE …, priority 2006, dated 2008).)
